Source: paper PMC7916272, “Colorimetric LPMO assay with direct implication for cellulolytic activity” (Biotechnology for Biofuels, 2021)

Legend:
Experiment in all cases: absorbance of PHP at […] nm
Assay type in all cases: biochemical
[1] = biological target: T1, TtAA9 (Thermothielavioides terrestris, UniProt D0VWZ9); settings: 1 µM Cu-loaded enzyme, with or without DHA, 40 °C, 30 min
T1 construct: gene gh61e; gift from Novozymes, purified to homogeneity, loaded with CuCl2

[2] = biological target: T2, TfAA10A (Thermobifida fusca, UniProt Q47QG3); settings: 1 µM Cu-loaded enzyme, with or without DHA, 40 °C, 30 min
T2 construct: gene Tfu_1268; expressed using LyGo platform, purified to homogeneity, loaded with CuCl2
T2 sequence (Q47QG3 37-222): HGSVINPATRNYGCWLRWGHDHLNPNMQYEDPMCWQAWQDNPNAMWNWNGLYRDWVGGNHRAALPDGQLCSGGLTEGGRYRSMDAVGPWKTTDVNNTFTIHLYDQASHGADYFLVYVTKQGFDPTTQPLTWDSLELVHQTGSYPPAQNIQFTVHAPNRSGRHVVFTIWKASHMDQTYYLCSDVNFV

[3] = biological target: T3, AnAA13 (Aspergillus nidulans, UniProt Q5B1W7); settings: 1 µM Cu-loaded enzyme, with or without DHA, 40 °C, 30 min
T3 construct: gene aasA; gift from Novozymes, purified to homogeneity, loaded with CuCl2
T3 sequence (Q5B1W7 19-385): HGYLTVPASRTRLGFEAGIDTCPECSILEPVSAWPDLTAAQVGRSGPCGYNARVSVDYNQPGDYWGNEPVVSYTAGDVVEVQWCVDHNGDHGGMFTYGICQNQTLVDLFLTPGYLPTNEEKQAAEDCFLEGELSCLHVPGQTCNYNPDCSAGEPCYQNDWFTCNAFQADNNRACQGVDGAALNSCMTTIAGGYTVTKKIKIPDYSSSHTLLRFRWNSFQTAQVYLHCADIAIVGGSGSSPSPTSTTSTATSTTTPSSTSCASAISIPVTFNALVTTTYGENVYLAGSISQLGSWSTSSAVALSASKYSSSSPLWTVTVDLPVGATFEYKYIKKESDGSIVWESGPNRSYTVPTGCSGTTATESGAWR

[4] = biological target: T4, CotA (Bacillus subtilis, UniProt H8WGE7); settings: […] enzyme, with or without DHA, […] °C, […] min
T4 construct: recombinant from Escherichia coli, purified to homogeneity
T4 sequence (H8WGE7 1-513): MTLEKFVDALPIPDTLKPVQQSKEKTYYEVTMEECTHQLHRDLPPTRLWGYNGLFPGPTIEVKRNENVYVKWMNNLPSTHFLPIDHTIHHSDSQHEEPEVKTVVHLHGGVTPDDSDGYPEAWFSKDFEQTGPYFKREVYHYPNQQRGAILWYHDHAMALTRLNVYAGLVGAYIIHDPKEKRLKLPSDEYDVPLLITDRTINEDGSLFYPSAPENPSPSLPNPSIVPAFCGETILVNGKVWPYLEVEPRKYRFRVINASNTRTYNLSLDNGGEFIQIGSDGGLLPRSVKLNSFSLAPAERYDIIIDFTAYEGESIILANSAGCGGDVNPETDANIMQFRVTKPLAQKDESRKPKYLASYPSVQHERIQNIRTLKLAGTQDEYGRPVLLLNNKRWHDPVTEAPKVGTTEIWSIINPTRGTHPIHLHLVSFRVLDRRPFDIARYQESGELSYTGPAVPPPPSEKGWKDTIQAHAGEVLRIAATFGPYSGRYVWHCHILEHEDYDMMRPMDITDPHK

[5] = biological target: T5, LsAA9A (Panus similis, UniProt A0A0S2GKZ1); settings: 1 µM Cu-loaded enzyme, with or without DHA, 40 °C, 30 min
T5 construct: gene LPMO9A; gift from Novozymes, purified to homogeneity, loaded with CuCl2
T5 sequence (A0A0S2GKZ1 20-254): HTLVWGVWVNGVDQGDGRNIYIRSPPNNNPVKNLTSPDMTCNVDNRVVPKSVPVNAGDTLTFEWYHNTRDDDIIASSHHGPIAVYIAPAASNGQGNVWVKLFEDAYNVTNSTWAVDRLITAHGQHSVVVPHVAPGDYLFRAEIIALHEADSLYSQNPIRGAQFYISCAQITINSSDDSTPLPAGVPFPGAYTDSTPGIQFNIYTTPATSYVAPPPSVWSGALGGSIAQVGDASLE

[6] = biological target: T6, SmAA10 (Serratia marcescens, UniProt P9WEM3); settings: 1 µM Cu-loaded enzyme, with or without DHA, 40 °C, 30 min
T6 construct: gene CBP21; expressed using LyGo platform, purified to homogeneity, loaded with CuCl2
T6 sequence (P9WEM3 28-197): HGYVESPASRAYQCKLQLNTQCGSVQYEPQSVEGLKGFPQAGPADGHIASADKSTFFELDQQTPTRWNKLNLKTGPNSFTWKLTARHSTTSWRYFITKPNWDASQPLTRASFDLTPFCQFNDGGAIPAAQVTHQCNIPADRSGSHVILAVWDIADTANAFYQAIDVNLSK

[7] = biological target: T7, MtL (Thermothelomyces thermophilus, UniProt G2QFD0); settings: 1 µM enzyme, with or without DHA, 40 °C, 30 min
T7 construct: gene LMCO1; gift from Novozymes, purified to homogeneity
T7 sequence (G2QFD0 21-650): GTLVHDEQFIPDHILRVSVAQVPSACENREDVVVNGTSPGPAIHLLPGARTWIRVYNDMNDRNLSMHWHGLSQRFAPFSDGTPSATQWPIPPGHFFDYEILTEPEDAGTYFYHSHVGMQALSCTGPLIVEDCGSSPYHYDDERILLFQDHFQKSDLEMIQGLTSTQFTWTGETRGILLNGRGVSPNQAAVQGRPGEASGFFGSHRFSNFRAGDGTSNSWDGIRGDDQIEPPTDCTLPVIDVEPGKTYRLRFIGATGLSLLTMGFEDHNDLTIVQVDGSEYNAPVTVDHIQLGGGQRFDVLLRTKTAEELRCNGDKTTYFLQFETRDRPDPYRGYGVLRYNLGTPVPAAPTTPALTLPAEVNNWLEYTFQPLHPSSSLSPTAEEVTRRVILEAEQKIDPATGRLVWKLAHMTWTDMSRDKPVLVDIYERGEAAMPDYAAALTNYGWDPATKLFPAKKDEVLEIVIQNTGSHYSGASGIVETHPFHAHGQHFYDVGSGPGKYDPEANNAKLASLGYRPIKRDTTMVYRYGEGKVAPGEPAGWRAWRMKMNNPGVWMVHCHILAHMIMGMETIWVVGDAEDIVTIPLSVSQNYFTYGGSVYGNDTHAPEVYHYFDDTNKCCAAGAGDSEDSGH

T1 sequence (D0VWZ9 entry or part of it): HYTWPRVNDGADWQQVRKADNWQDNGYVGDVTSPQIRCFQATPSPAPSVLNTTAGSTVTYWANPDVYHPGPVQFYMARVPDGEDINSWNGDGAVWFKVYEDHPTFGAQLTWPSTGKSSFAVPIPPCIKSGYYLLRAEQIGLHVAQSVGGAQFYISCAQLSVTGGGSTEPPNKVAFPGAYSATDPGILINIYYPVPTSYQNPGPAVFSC

In the case of `O=C(O)c1ccccc1C(c1ccc(O)cc1)c1ccc(O)cc1` [rPHP, reduced phenolphthalein], the “absorbance of PHP at 552 nm” value [1] is reported as “All LPMOs tested oxidise rPHP in a DHA dependent reaction”, the “absorbance of PHP at 552 nm” value [2] is reported as “All LPMOs tested oxidise rPHP in a DHA dependent reaction” and the “absorbance of PHP at 552 nm” value [3] is reported as “AnAA13 stands out with a relatively large rPHP oxidation without DHA”. The “absorbance of PHP at 552 nm” value [4] was “did oxidise rPHP; however, the rPHP oxidising activity of these enzymes was not enhanced”, the “absorbance of PHP at 552 nm” value [5] was “All LPMOs tested oxidise rPHP in a DHA dependent reaction” and the “absorbance of PHP at 552 nm” value [6] was “All LPMOs tested oxidise rPHP in a DHA dependent reaction”. For the same compound, the “absorbance of PHP at 552 nm” value [7] was “did oxidise rPHP; however, the rPHP oxidising activity of these enzymes was not enhanced”.
